The values below come from US10696674B2, “Spirolactams as inhibitors of ROCK” (BRISTOL-MYERS SQUIBB COMPANY, priority 2016, dated 2020).

SMILES strings stand for the structures.

Chain of ROCK2 (O75116 whole entry, species assumed): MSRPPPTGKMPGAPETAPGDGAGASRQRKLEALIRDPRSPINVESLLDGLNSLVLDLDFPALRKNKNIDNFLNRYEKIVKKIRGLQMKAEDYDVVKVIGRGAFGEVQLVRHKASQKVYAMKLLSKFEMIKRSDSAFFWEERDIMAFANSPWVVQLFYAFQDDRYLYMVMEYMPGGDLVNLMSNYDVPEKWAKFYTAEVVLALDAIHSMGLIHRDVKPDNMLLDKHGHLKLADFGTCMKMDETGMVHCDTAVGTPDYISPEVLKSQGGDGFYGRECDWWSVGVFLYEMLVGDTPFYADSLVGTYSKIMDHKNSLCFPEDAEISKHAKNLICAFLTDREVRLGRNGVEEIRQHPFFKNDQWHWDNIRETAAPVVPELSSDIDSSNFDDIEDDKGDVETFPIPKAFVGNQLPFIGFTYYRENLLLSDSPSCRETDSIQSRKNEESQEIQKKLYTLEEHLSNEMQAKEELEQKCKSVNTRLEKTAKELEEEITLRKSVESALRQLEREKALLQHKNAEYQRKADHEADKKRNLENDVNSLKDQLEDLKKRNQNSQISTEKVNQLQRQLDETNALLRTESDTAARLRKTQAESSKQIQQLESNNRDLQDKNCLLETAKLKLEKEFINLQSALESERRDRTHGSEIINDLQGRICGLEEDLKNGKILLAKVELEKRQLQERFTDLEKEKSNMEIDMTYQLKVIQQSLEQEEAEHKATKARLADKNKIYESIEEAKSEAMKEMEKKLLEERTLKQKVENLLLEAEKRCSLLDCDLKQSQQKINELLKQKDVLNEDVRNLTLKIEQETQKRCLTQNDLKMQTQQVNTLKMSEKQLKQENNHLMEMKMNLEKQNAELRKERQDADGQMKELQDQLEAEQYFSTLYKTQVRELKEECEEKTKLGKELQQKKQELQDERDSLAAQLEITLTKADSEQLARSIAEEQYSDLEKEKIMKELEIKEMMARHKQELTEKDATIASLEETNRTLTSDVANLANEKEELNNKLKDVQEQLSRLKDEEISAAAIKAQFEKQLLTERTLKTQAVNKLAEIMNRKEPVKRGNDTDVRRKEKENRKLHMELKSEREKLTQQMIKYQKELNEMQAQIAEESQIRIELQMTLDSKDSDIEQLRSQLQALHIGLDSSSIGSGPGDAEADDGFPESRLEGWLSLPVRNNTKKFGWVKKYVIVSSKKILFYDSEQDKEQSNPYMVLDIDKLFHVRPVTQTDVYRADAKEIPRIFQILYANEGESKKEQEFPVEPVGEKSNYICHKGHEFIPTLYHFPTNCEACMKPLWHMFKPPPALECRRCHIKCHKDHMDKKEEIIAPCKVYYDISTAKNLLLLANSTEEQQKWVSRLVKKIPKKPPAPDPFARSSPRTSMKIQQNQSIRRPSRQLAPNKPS

In this assay the target is ROCK2 (Homo sapiens, UniProt O75116). The assay is described as follows: ROCK2 assay (Caliper LABCHIP peptide phosphorylation). Format: biochemical. The conditions noted are these: 5 μM ATP, 1.5 μM peptide substrate. On the procedure:
The effectiveness of compounds of the present invention as ROCK inhibitors can be determined in a 30 μL assay containing 20 mM HEPES, pH 7.5, 20 mM MgCl2, 0.015% Brij-35, 4 mM DTT, 5 μM ATP and 1.5 μM peptide substrate (FITC-AHA-AKRRRLSSLRA-OH) (SEQ ID NO.1). Compounds were dissolved in DMSO so that the final concentration of DMSO was <2%, and the reaction was initiated with Rho kinase variants. After incubation, the reaction was terminated by the addition of EDTA and the phosphorylated and non-phosphorylated peptides separated using a LABCHIP® 3000 Reader (Caliper Life Sciences). […] Compounds were tested in dose-response format, and the inhibition of kinase activity was calculated at each concentration of compound. The inhibition data were fit using a curve-fitting program to determine the IC50; i.e., the concentration of compound required to inhibit 50% of kinase activity.
Representative Examples were tested in the ROCK2 assay described above and found having ROCK2 inhibitory activity. The ranges of the ROCK2 IC50 values are as follows: ROCK2 IC50: ++++ (<3 nM) +++ (3-30 nM) ++ (30-300 nM) + (300-2000 nM)
The term IC50 denotes the concentration at which inhibition is half-maximal. High values mean weaker potency in that assay, low ones greater potency in that assay. With `O=C1N(c2ccc(-c3cn[nH]c3)cc2)CCC12Cc1ccccc1CN2` (stereo not shown) [Example 48, 1′-(4-(1H-pyrazol-4-yl)phenyl)-1,4-dihydro-2H-spiro[isoquinoline-3,3′-pyrrolidin]-2′-one], the IC50 fell in the range of 30 to 300 nM.
The result for `COc1ccc2c(c1)NC1(CCN(c3ccc(-c4cn[nH]c4)cc3)C1=O)C2` (single isomer, unassigned) [Example 5, 1′-(4-(1H-Pyrazol-4-yl)phenyl)-6-methoxyspiro[indoline-2,3′-pyrrolidin]-2′-one] reads less than 3 nM.
The figure for `COc1cc(N2CCC3(Cc4ccccc4N3)C2=O)ccc1-c1cn[nH]c1` (racemic) [Example 32, 1′-(3-methoxy-4-(1H-pyrazol-4-yl)phenyl)spiro[indoline-2,3′-pyrrolidin]-2′-one] is less than 3 nM; for `COc1ccc2c(c1)N(C)C1(CCN(c3ccc(-c4cn[nH]c4)cc3)C1=O)C2` (stereo not shown) [Example 14, 1′-(4-(1H-Pyrazol-4-yl)phenyl)-6-methoxy-1-methylspiro[indoline-2,3′-pyrrolidin]-2′-one] it is 30 to 300 nM.
The figure for `O=C1N(c2ccc(-c3cn[nH]c3)cc2)CCC12CCc1ccccc1N2` (stereo not shown) [Example 47, 1-(4-(1H-pyrazol-4-yl)phenyl)-3′,4′-dihydro-1 ^1H-spiro[pyrrolidine-3,2′-quinolin]-2-one] is less than 3 nM; for `COc1cc(N2CCC3(Cc4ccccc4N3)C2=O)ccc1-c1cn[nH]c1` (single isomer, unassigned) [Example 34, 1′-(3-methoxy-4-(1H-pyrazol-4-yl)phenyl)spiro[indoline-2,3′-pyrrolidin]-2′-one] it is less than 3 nM; for `COc1nc(N2CCC3(Cc4ccccc4C3)C2=O)ccc1-c1cn[nH]c1` [Example 23, 1′-(6-Methoxy-5-(1H-pyrazol-4-yl)pyridin-2-yl)-1,3-dihydrospiro[indene-2,3′-pyrrolidin]-2′-one] it is less than 3 nM.
`O=C1N(c2ccc(-c3cn[nH]c3)cc2)CCC12Cc1ccc(F)cc1C2` (single isomer, unassigned) [Example 15, 1′-(4-(1H-Pyrazol-4-yl)phenyl)-5-fluoro-1,3-dihydrospiro[indene-2,3′-pyrrolidin]-2′-one] returned an IC50 of 3 to 30 nM.
The result for `COc1ccc2c(c1)NC1(CCN(c3ccc(-c4cn[nH]c4)cc3)C1=O)C2` (single isomer, unassigned) [Example 6, 1′-(4-(1H-Pyrazol-4-yl)phenyl)-6-methoxyspiro[indoline-2,3′-pyrrolidin]-2′-one] reads 3 to 30 nM.
As for `COc1ccc2c(c1)CC1(CCN(c3ccc(-c4cn[nH]c4)cc3)C1=O)N2` (stereo not shown) [Example 12, 1′-(4-(1H-Pyrazol-4-yl)phenyl)-5-methoxyspiro[indoline-2,3′-pyrrolidin]-2′-one], the IC50 was 30 to 300 nM.
For `COc1nc(N2CCC3(Cc4ccc(F)cc4C3)C2=O)ccc1-c1cn[nH]c1` (single isomer, unassigned) [Example 18, 5-Fluoro-1′-(6-methoxy-5-(1H-pyrazol-4-yl)pyridin-2-yl)-1,3-dihydrospiro[indene-2,3′-pyrrolidin]-2′-one], the IC50 lay within 3 to 30 nM.
Regarding `COc1cc(F)c2c(c1)NC1(CCN(c3ccc(-c4cn[nH]c4)cc3)C1=O)C2` (single isomer, unassigned) [Example 40, 1′-(4-(1H-Pyrazol-4-yl)phenyl)-4-fluoro-6-methoxyspiro[indoline-2,3′-pyrrolidin]-2′-one], the IC50 is less than 3 nM.
The figure for `COc1nc(N2CCC3(Cc4ccc(F)cc4C3)C2=O)ccc1-c1cn[nH]c1` (single isomer, unassigned) [Example 17, 5-Fluoro-1′-(6-methoxy-5-(1H-pyrazol-4-yl)pyridin-2-yl)-1,3-dihydrospiro[indene-2,3′-pyrrolidin]-2′-one] is less than 3 nM.
The figure for `COc1ccc2c(c1)CC1(CCN(c3ccc(-c4cn[nH]c4)cc3)C1=O)O2` (stereo not shown) [Example 24, 1′-(4-(1H-Pyrazol-4-yl)phenyl)-5-methoxy-3H-spiro[benzofuran-2,3′-pyrrolidin]-2′-one] is less than 3 nM.
For the compound `O=C1N(c2ccc(-c3ccncc3)cc2)CCC12Cc1ccccc1N2` (stereo not shown) [Example 45, 1′-(4-(Pyridin-4-yl)phenyl)spiro[indoline-2,3′-pyrrolidin]-2′-one], the IC50 fell in the range of 3 to 30 nM.
The result for `O=C1N(c2ccc(-c3cn[nH]c3)cc2)CCC12Cc1ccccc1O2` (single isomer, unassigned) [Example 31, 1′-(4-(1H-Pyrazol-4-yl)phenyl)-3H-spiro[benzofuran-2,3′-pyrrolidin]-2′-one] reads less than 3 nM.
On to `O=C1N(c2ccc(-c3cn[nH]c3)cc2)CCC12Cc1cc(F)ccc1N2` (single isomer, unassigned) [Example 8, 1′-(4-(1H-Pyrazol-4-yl)phenyl)-5-fluorospiro[indoline-2,3′-pyrrolidin]-2′-one], for which the IC50 fell in the range of 3 to 30 nM.
The result for `O=C1N(c2ccc(-c3cn[nH]c3)cc2)CCC12Cc1ccc(OCC3CC3)cc1N2` (single isomer, unassigned) [Example 42, 1′-(4-(1H-Pyrazol-4-yl)phenyl)-6-(cyclopropylmethoxy)spiro[indoline-2,3′-pyrrolidin]-2′-one] reads less than 3 nM.
The figure for `NCC1CN(c2ccc(-c3cn[nH]c3)cc2)C(=O)C12Cc1ccccc1N2` (stereo not shown) [Example 53, 1′-(4-(1H-pyrazol-4-yl)phenyl)-4′-(aminomethyl)spiro[indoline-2,3′-pyrrolidin]-2′-one] is less than 3 nM; for `O=C1N(c2ccc(-c3ccnc4[nH]ccc34)cc2)CCC12Cc1ccccc1CN2` (stereo not shown) [Example 49, 1′-(4-(1H-pyrrolo[2,3-b]pyridin-4-yl)phenyl)-1,4-dihydro-2H-spiro[isoquinoline-3,3′-pyrrolidin]-2′-one] it is 3 to 30 nM; for `O=C1N(c2ccc(-c3cn[nH]c3)cc2)CCC12Cc1cc(F)ccc1N2` (racemic) [Example 7, 1′-(4-(1H-Pyrazol-4-yl)phenyl)-5-fluorospiro[indoline-2,3′-pyrrolidin]-2′-one] it is 3 to 30 nM.
Compound `CC1(C)c2ccccc2NC12CCN(c1ccc(-c3cn[nH]c3)cc1)C2=O` (stereo not shown) [Example 51, 1′-(4-(1H-pyrazol-4-yl)phenyl)-3,3-dimethylspiro[indoline-2,3′-pyrrolidin]-2′-one] gave an IC50 of less than 3 nM.
The result for `O=C1N(c2ccc(-c3ccc4[nH]ncc4c3)cc2)CCC12Cc1ccccc1N2` (stereo not shown) [Example 13, 1′-(4-(1H-Indazol-5-yl)phenyl)spiro[indoline-2,3′-pyrrolidin]-2′-one] reads 3 to 30 nM.
The figure for `O=C1N(c2ccc(-c3cn[nH]c3)cc2)CCC12Cc1ccccc1C2` [Example 11, 1′-(4-(1H-Pyrazol-4-yl)phenyl)-1,3-dihydrospiro[indene-2,3′-pyrrolidin]-2′-one] is 3 to 30 nM; for `COc1cc(N2CCC3(Cc4ccccc4N3)C2=O)ccc1-c1cn[nH]c1` (single isomer, unassigned) [Example 33, 1′-(3-Methoxy-4-(1H-pyrazol-4-yl)phenyl)spiro[indoline-2,3′-pyrrolidin]-2′-one] it is 30 to 300 nM.
The result for `CC(C)(O)COc1ccc2c(c1)NC1(CCN(c3ccc(-c4cn[nH]c4)cc3)C1=O)C2` (stereo not shown) [Example 36] reads 30 to 300 nM; that for `O=C1N(c2ccc(-c3cn[nH]c3)cc2)CCC12Cc1cc(F)ccc1N2` (single isomer, unassigned) [Example 9, 1′-(4-(1H-Pyrazol-4-yl)phenyl)-5-fluorospiro[indoline-2,3′-pyrrolidin]-2′-one], 30 to 300 nM; that for `O=C1N(c2cnc(-c3cn[nH]c3)cn2)CCC12Cc1ccccc1N2` (stereo not shown) [Example 44, 1′-(5-(1H-Pyrazol-4-yl)pyrazin-2-yl)spiro[indoline-2,3′-pyrrolidin]-2′-one], 3 to 30 nM.
In turn, `COc1ccc2c(c1)CC1(CCN(c3ccc(-c4cn[nH]c4)c(OC)n3)C1=O)C2` (single isomer, unassigned) [Example 20, 5-Methoxy-1′-(6-methoxy-5-(1H-pyrazol-4-yl)pyridin-2-yl)-1,3-dihydrospiro[indene-2,3′-pyrrolidin]-2′-one] returned an IC50 of less than 3 nM.
The figure for `O=C1N(c2ccc(-c3cn[nH]c3)cc2)CCC12Cc1ccc(O)cc1N2` (stereo not shown) [Example 37] is less than 3 nM.
The figure for `O=C1N(c2ccc(-c3cn[nH]c3)cc2)CC(CO)C12CCc1ccccc1N2` (stereo not shown) [Example 56, 1-(4-(1H-pyrazol-4-yl)phenyl)-4-(hydroxymethyl)-3′,4′-dihydro-1′H-spiro[pyrrolidine-3,2′-quinolin]-2-one] is less than 3 nM; for `O=C1N(c2ccc(-c3cn[nH]c3)cn2)CCC12Cc1ccccc1N2` (stereo not shown) [Example 41, 1′-(5-(1H-Pyrazol-4-yl)pyridin-2-yl)spiro[indoline-2,3′-pyrrolidin]-2′-one] it is 3 to 30 nM; for `COc1ccc2c(c1)CC1(CCN(c3ccc(-c4cn[nH]c4)cc3)C1=O)O2` (single isomer, unassigned) [Example 25, 1′-(4-(1H-Pyrazol-4-yl)phenyl)-5-methoxy-3H-spiro[benzofuran-2,3′-pyrrolidin]-2′-one] it is 30 to 300 nM.
The result for `COc1ccc2c(c1)CC1(CCN(c3ccc(-c4cn[nH]c4)cc3)C1=O)O2` (single isomer, unassigned) [Example 26, 1′-(4-(1H-Pyrazol-4-yl)phenyl)-5-methoxy-3H-spiro[benzofuran-2,3′-pyrrolidin]-2′-one] reads less than 3 nM.
